This is an account of results in US9340577B2, “HLA binding motifs and peptides and their uses” (priority 1992, dated 2016).

Like-named read-outs stand apart in the source and are kept apart here. No end group written: not given here. Where only a bound is given, the exact number is not on record here.

Holding throughout (experiment): biochemical
One test deals with DRB1*1201 (Homo sapiens, UniProt P01903+P01911, A100R/A169T/D57E/D86V/F55L/H45Y/K41T/L162R/M171V/P40S/Q125H/Q178H/Q39Y/Q99D/R42G/S66L/T262R/V114A/V67L/W38E/Y59H/Y61H/Y89S). The test is classed as binding.
The next test deals with DRB1*1101 (Homo sapiens, UniProt P01903+P01911, A100R/A169T/A87E/I96F/K41T/L162R/M171V/P40S/Q125H/Q178H/Q39Y/Q99D/R42S/S66Y/T262R/V115G/W38E).
Sequence of DRB1*1101 (P01903 26-254 limits assumed, other chains not shown): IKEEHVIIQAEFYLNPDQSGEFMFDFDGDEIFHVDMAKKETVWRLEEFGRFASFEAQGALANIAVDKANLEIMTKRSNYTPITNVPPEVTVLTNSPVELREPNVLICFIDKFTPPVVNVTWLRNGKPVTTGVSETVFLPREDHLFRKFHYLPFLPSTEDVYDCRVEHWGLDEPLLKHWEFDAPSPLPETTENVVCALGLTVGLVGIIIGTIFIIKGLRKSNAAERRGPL
A further test concerns the target DRB1*1302 (Homo sapiens, UniProt P01903+P01911, A100E/A169T/K41T/L162R/M171V/P40S/Q125H/Q178H/Q39Y/Q99D/R42S/S66N/T262R/V115G/W38E/Y61H). The test is classed as binding.
In the next test the target is DR1 (DRB1*0101) (Homo sapiens, UniProt P01903+P01911, A100R/D57E/F55L/F60I/F76Y/I96L/L162R/M171V/P40L/Q125E/R42F/V115G/Y59C). Format: binding.
For the next test, the target named is DRB4*0101 (Homo sapiens, UniProt P01903+P13762, G164S). The test is classed as binding.
The target of the next test is DR4w4 (DRB1*0401) (Homo sapiens, UniProt P01903+P01911, A100K/A169T/F76Y/I96L/K127E/L162R/M171V/N62H/P40V/Q125Y/R42H/S133A/S149N/S66Y/V115G/V209L/W38E). The test is classed as binding.
In a further test the target is DRB1*0405 (Homo sapiens, UniProt P01903+P01911, A100R/A169T/D86S/F76Y/I96L/K127E/L162R/M171V/N62H/P40V/Q125Y/R42H/S133A/S149N/S66Y/V115G/V209L/W38E). The test is classed as binding.
The target in a further test is DRB1*1501 (Homo sapiens, UniProt P01903+P01911). Format: binding.
For a further test, the target named is DRB1*0802 (Homo sapiens, UniProt P01903+P01911, A100R/A103L/A169T/F76Y/H45Y/I96F/K41T/L162R/M171V/P40S/Q125H/Q178H/Q39Y/Q99D/R218S/R42G/S66Y/V115G/W38E). The test is classed as binding.
Another test addresses DRB5*0101 (Homo sapiens, UniProt P01903+Q30154).
The next test addresses DR7 (DRB1*0701) (Homo sapiens, UniProt P01903+P01911, A100R/A102G/A103Q/D57E/D86V/E43K/F76Y/K127E/L162R/M171V/P40G/Q125H/Q99D/R33Q/R42Y/R54Q/S133A/S66F/T210M/V115G/Y107V/Y59L/Y89S). The test is classed as binding.
Another test deals with DRB1*0901 (Homo sapiens, UniProt P01903+P01911, A100R/A103E/D57H/D86V/F55Y/F60I/F76Y/I96F/K127E/L162R/M171V/P40D/Q125H/Q99R/R33Q/R42F/S133A/S66N/T210M/V115G/W38K/Y107V/Y59G/Y89S). Format: binding.

Sequence of DRB1*1302 (P01903 26-254 limits assumed, other chains not shown): as above

Usually IC50 stands for the midpoint of a concentration-inhibition curve. Low readings indicate higher potency, high ones lower potency. `CC(C)C[C@H](NC(=O)[C@H](CCC(=O)O)NC(=O)[C@H](CCCCN)NC(=O)[C@H](C)N)C(=O)N[C@@H](CCCCN)C(=O)N[C@@H](Cc1ccccc1)C(=O)N[C@H](C(=O)N[C@H](C(=O)N[C@@H](CC(C)C)C(=O)N[C@H](C(=O)N[C@@H](Cc1ccccc1)C(=O)N[C@@H](CCCNC(=N)N)C(=O)N[C@@H](Cc1c[nH]cn1)C(=O)NCC(=O)N[C@@H](CC(=O)O)C(=O)O)C(C)C)[C@@H](C)O)C(C)C` [68,0025] came in with an IC50 against DRB1*1201 of 0.693 µM.
Still for that read-out and setting: the value for `CC[C@H](C)[C@H](N)C(=O)N[C@@H](CC(C)C)C(=O)N[C@@H](CC(C)C)C(=O)N[C@@H](Cc1c[nH]c2ccccc12)C(=O)N[C@@H](CCC(N)=O)C(=O)N1CCC[C@H]1C(=O)N[C@H](C(=O)N1CCC[C@H]1C(=O)N[C@H](C(=O)N[C@@H](Cc1c[nH]cn1)C(=O)N[C@H](C(=O)N[C@H](C(=O)N1CCC[C@H]1C(=O)N[C@@H](CC(C)C)C(=O)N[C@@H](CO)C(=O)O)C(C)C)[C@@H](C)O)C(C)C)[C@@H](C)CC` [68,0038] was 7.29 µM; that for `CC[C@H](C)[C@H](NC(=O)[C@H](CCCCN)NC(=O)[C@H](C)NC(=O)[C@@H]1CCCN1C(=O)[C@H](CCC(=O)O)NC(=O)[C@H](CO)NC(=O)[C@H](CC(C)C)NC(=O)[C@H](CCCNC(=N)N)NC(=O)[C@H](CC(C)C)NC(=O)[C@H](CC(C)C)NC(=O)[C@H](CCSC)NC(=O)[C@H](CC(C)C)NC(=O)[C@H](CC(=O)O)NC(=O)[C@@H](N)Cc1c[nH]cn1)C(=O)N[C@H](C(=O)O)[C@@H](C)O` [Peptide 68.0011] was 0.084 µM; that for `CC[C@H](C)[C@H](NC(=O)[C@H](CS)NC(=O)[C@H](Cc1c[nH]cn1)NC(=O)[C@H](C)NC(=O)[C@H](C)NC(=O)[C@@H](NC(=O)[C@H](CC(C)C)NC(=O)[C@@H](NC(=O)[C@H](Cc1c[nH]c2ccccc12)NC(=O)[C@H](CCC(N)=O)NC(=O)[C@@H]1CCCN1C(=O)[C@@H](N)Cc1c[nH]cn1)C(C)C)[C@@H](C)O)C(=O)N[C@@H](CCCNC(=N)N)C(=O)N[C@@H](CC(N)=O)C(=O)N[C@@H](CCCCN)C(=O)O` [Peptide 68.0064] was 5.79 µM.
Compound `CSCC[C@H](NC(=O)[C@H](CC(C)C)NC(=O)[C@H](CC(=O)O)NC(=O)[C@@H](N)Cc1c[nH]cn1)C(=O)N[C@@H](CC(C)C)C(=O)N[C@@H](CC(C)C)C(=O)N[C@@H](CCCNC(=N)N)C(=O)N[C@@H](CC(C)C)C(=O)N[C@@H](CO)C(=O)N[C@@H](CCC(=O)O)C(=O)N1CCC[C@H]1C(=O)N[C@@H](C)C(=O)N[C@@H](CCC(=O)O)C(=O)N[C@@H](CC(C)C)C(=O)N[C@H](C(=O)O)[C@@H](C)O` [Peptide 68.0073] displayed an IC50 against DRB1*1201 of 0.52 µM.
On DRB1*1201, `CC[C@H](C)[C@H](NC(=O)[C@H](CCC(N)=O)NC(=O)[C@@H](NC(=O)[C@H](Cc1ccccc1)NC(=O)[C@H](CC(N)=O)NC(=O)[C@H](Cc1ccc(O)cc1)NC(=O)[C@H](CC(C)C)NC(=O)[C@H](Cc1ccccc1)NC(=O)[C@@H](N)CCCCN)[C@@H](C)O)C(=O)N1CCC[C@H]1C(=O)N[C@@H](Cc1c[nH]cn1)C(=O)N[C@@H](CC(C)C)C(=O)N[C@@H](C)C(=O)NCC(=O)N[C@H](C(=O)O)[C@@H](C)O` [Peptide 68.0087] returned an IC50 of 1.24 µM. Against the preceding compound, the IC50 is about 2.4-fold higher.
Turning to `CSCC[C@H](NC(=O)[C@H](CC(C)C)NC(=O)[C@@H]1CCCN1C(=O)[C@@H](NC(=O)[C@@H](N)CS)[C@@H](C)O)C(=O)N[C@@H](Cc1ccc(O)cc1)C(=O)N[C@@H](CO)C(=O)N[C@@H](CC(C)C)C(=O)N[C@H](C(=O)N[C@@H](Cc1c[nH]cn1)C(=O)N[C@@H](CC(N)=O)C(=O)N[C@@H](CC(C)C)C(=O)N[C@H](C(=O)N[C@@H](CCCCN)C(=O)N[C@@H](CCC(=O)O)C(=O)O)[C@@H](C)O)C(C)C` [Peptide 68.0113], 1.73 µM corresponded to half-maximal inhibition against DRB1*1201 (IC50).
Still for that read-out and setting: as for `CSCC[C@H](NC(=O)[C@H](CC(C)C)NC(=O)[C@H](CCC(N)=O)NC(=O)[C@H](CC(=O)O)NC(=O)[C@H](CC(N)=O)NC(=O)[C@H](CCSC)NC(=O)[C@H](CCSC)NC(=O)[C@H](CCCNC(=N)N)NC(=O)[C@H](CC(C)C)NC(=O)[C@@H](N)C(C)C)C(=O)N[C@@H](Cc1ccccc1)C(=O)N[C@@H](CC(C)C)C(=O)N[C@@H](CCC(=O)O)C(=O)N[C@@H](CCCNC(=N)N)C(=O)N[C@@H](C)C(=O)O` [Peptide 68.0130], the figure is 0.098 µM.
The same measure, in the same setting: the value for `CC[C@H](C)[C@H](NC(=O)[C@H](Cc1ccccc1)NC(=O)[C@H](C)NC(=O)[C@H](CCCNC(=N)N)NC(=O)[C@H](CCC(=O)O)NC(=O)[C@H](CC(C)C)NC(=O)[C@H](Cc1ccccc1)NC(=O)[C@H](CCSC)NC(=O)[C@H](CC(C)C)NC(=O)[C@H](CCC(N)=O)NC(=O)[C@@H](N)CC(=O)O)C(=O)N[C@@H](CC(=O)O)C(=O)N1CCC[C@H]1C(=O)N[C@@H](CC(C)C)C(=O)NCC(=O)O` [Peptide 68.0181] was 0.146 µM.
Turning to NHQVVPALSVSKAKA [Peptide 89.0168], the IC50 on DRB1*1101 (Binding affinity DRB1 *1101) was > 20 µM; against DRB1*1302 it was 0.9 µM; at DR1 (DRB1*0101), > 20 µM; at DRB4*0101, > 20 µM; at DR4w4 (DRB1*0401), 0.959 µM; on DRB1*0405, > 20 µM. For the same compound, the IC50 was 7.34 µM on DRB1*1501; > 20 µM against DRB1*0802; > 20 µM on DRB5*0101 (Binding affinity DRB5 *0101); > 20 µM on DR7 (DRB1*0701); > 20 µM on DRB1*0901.
NSIFDFGEMVQWAYD [Peptide 89.0106]: the IC50 on DRB1*1101 (Binding affinity DRB1 *1101) was > 20 µM; against DRB1*1302, 0.532 µM; against DR1 (DRB1*0101) it was 4.85 µM; against DRB4*0101, 3.95 µM; against DR4w4 (DRB1*0401), 5.25 µM; on DRB1*0405, > 20 µM. For the same compound, the IC50 is 9.98 µM at DRB1*1501; > 20 µM on DRB1*0802; > 20 µM on DRB5*0101 (Binding affinity DRB5 *0101); 5.98 µM against DR7 (DRB1*0701); > 20 µM at DRB1*0901.
Take QQQMFLGTVKIPPTV [Peptide 89.0187]: the half-maximal inhibitory concentration (IC50) came out at 5.88 µM at DRB1*1101 (Binding affinity DRB1 *1101); 3.34 µM against DRB1*1302; 0.743 µM at DR1 (DRB1*0101); 1.59 µM against DRB4*0101; 0.07 µM against DR4w4 (DRB1*0401); 6.33 µM on DRB1*0405. In addition, the IC50 is 1 µM on DRB1*1501; 7.29 µM on DRB1*0802; > 20 µM on DRB5*0101 (Binding affinity DRB5 *0101); > 20 µM on DR7 (DRB1*0701); > 20 µM at DRB1*0901.
Take RNLVDGNPISLDRKH [Peptide 89.0137]: the IC50 on DRB1*1101 is > 20 µM; on DRB1*1302, > 20 µM; on DR1 (DRB1*0101), 11.2 µM; against DRB4*0101, 0.992 µM; against DR4w4 (DRB1*0401) it was 1.04 µM; on DRB1*0405 it was > 20 µM. Moreover, the IC50 against DRB1*1501 was > 20 µM; on DRB1*0802 it was > 20 µM; on DRB5*0101, > 20 µM; on DR7 (DRB1*0701), 7.38 µM; against DRB1*0901, > 20 µM.
With RQHLANHPAATHTKA [Peptide 89.0155], the IC50 was 16 µM at DRB1*1101 (Binding affinity DRB1 *1101); 0.878 µM on DRB1*1302; > 20 µM at DR1 (DRB1*0101); > 20 µM against DRB4*0101; > 20 µM against DR4w4 (DRB1*0401); > 20 µM against DRB1*0405. Also, the IC50 on DRB1*1501 was 8.66 µM; against DRB1*0802, > 20 µM; at DRB5*0101 (Binding affinity DRB5 *0101) it was > 20 µM; on DR7 (DRB1*0701) it was > 20 µM; against DRB1*0901, > 20 µM.
Consider SQLLNIPETHMVIEP [Peptide 89.0102], for which the IC50 at DRB1*1101 (Binding affinity DRB1 *1101) is > 20 µM; at DRB1*1302, > 20 µM; at DR1 (DRB1*0101) it was > 20 µM; on DRB4*0101, 0.807 µM; on DR4w4 (DRB1*0401), > 20 µM; on DRB1*0405 it was > 20 µM. Besides, the IC50 against DRB1*1501, against DRB1*0802, on DRB5*0101 (Binding affinity DRB5 *0101), on DR7 (DRB1*0701) and on DRB1*0901 was > 20 µM in each case.
